From ChEMBL document CHEMBL3632554, “Ligand binding studies, preliminary structure-activity relationship and detailed mechanistic characterization of 1-phenyl-6,6-dimethyl-1,3,5-triazine-2,4-diamine derivatives as inhibitors of Escherichia coli dihydrofolate reductase” (Eur J Med Chem, 2015)
The source made the active and inactive calls. The rule behind the calls is not given here.

Biological target: T1, Dihydrofolate reductase (Escherichia coli) (UniProt P0ABQ4)
T1 sequence (whole entry): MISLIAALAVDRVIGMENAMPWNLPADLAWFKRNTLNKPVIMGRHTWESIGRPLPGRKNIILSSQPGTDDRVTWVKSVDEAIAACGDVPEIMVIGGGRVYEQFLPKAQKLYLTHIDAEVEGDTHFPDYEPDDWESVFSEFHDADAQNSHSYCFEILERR

Compound	Ki(app)
CC1(C)N=C(N)N=C(N)N1c1ccc(CCCCc2ccc(Cl)cc2Cl)cc1	inactive
CN(C)c1ccc(N2C(N)=NC(N)=NC2(C)C)cc1	inactive
